Measurements reported in patent US7858125B2, “Multi-component biocide composition for wood protection” (priority 2006, dated 2010).
Where two headings read alike, the source gives them in different places.

Experiments:
T. viride = experiment: Mold resistance of treated wood stakes (ASTM D4445-91), T. viride; type: cell-based, Trichoderma viride ATCC 20476
Description: (§1) The biocide compositions were first tested for the efficacy in preventing mold fungal growth. […] The mold fungi were first prepared by growing the various mold fungi species on 2% malt agar. […] Spore suspensions were transferred to a spray bottle and diluted to 100 milliliters with DI water. The spray bottle was adjusted to deliver 1 milliliter inoculum/spray.
(§2) The biocide compositions were tested for the efficacy in preventing mold fungal growth and compared to the abilities of the commercially used preservatives, fungicides, extracts, and pharmaceuticals in preventing mold fungal growth.
(§3) Specimens (7×20 millimeters cross section by 7 centimeters long) were cut from unseasoned southern yellow pine mill ends from a Mississippi sawmill and stored at 0° C. […] Southern yellow pine oriented strand board (OSB) specimens (11×20 millimeters cross section by 7 centimeters long) were cut from a full sheet of OSB and conditioned to 70% relative humidity. […] Untreated stakes were dipped in DI water and served as Control A for water-based test chemicals. […]
(§4) The biocide compositions were first tested for the efficacy in preventing mold fungal growth. […]

P. chrysogenum = experiment: Mold resistance of treated wood stakes (ASTM D4445-91), P. chrysogenum; type: cell-based, Penicillium chrysogenum PH02
Description: as §1, §2, §3, §4

A. niger = experiment: Mold resistance of treated wood stakes (ASTM D4445-91), A. niger; type: cell-based, Aspergillus niger 2.242
Description: as §1, §2, §3, §4

[1] = Example 2, dip-treated unseasoned southern yellow pine, 4 weeks, scale 0-5 (5 = 100% coverage)

Compound | Mold Resistance Average Rating, T. viride (T. viride; [1]) | Mold Resistance Average Rating, P. chrysogenum (P. chrysogenum; [1]) | Mold Resistance Average Rating, A. niger (A. niger; [1]) | Mold Resistance Average Rating, T. viride (T. viride) | Mold Resistance Average Rating, P. chrysogenum (P. chrysogenum) | Mold Resistance Average Rating, A. niger (A. niger)
O=C[O-].[Na+] [Sample 25, Sodium formate] | 4.3 | 4.6 | 5.0 | – | – | –
O=C[O-].[Na+] [Sample 26, Sodium formate] | 4.1 | 4.7 | 5.0 | – | – | –
C/C=C/C=C/C(=O)[O-].[K+] [Sample 24, Potassium sorbate] | – | – | – | 0.0 | 1.7 | 0.0
O=C([O-])c1ccccc1.[Na+] [Sample 15, Sodium benzoate] | 0.4 | 0.0 | 0.4 | – | – | –
c1ccc2[nH]c(-c3cscn3)nc2c1 [Sample 47, Thiabendazole] | 0.0 | 0.0 | 0.0 | – | – | –
C[C@@H](c1ncncc1F)[C@](O)(Cn1cncn1)c1ccc(F)cc1F [Sample 44, Voriconazole] | 0.1 | 0.0 | 0.0 | – | – | –
c1ccc2[nH]c(-c3cscn3)nc2c1 [Sample 46, Thiabendazole] | 0.0 | 0.0 | 0.0 | – | – | –
c1ccc2[nH]c(-c3cscn3)nc2c1 [Sample 45, Thiabendazole] | 2.5 | 0.0 | 0.0 | – | – | –
CCC(=O)[O-].CCC(=O)[O-].[Ca+2] [Sample 18, Calcium propionate] | 4.7 | 5.0 | 5.0 | – | – | –
OC(Cn1cncn1)(Cn1cncn1)c1ccc(F)cc1F [Sample 39, Difluconazole] | 5.0 | 4.7 | 5.0 | – | – | –
Clc1ccccc1C(c1ccccc1)(c1ccccc1)n1ccnc1 [Sample 40, Clotrimazole] | 3.7 | 3.4 | 5.0 | – | – | –
Clc1ccc(COC(Cn2ccnc2)c2ccc(Cl)cc2Cl)c(Cl)c1 (stereo not drawn) [Sample 34, Miconazole] | 0.0 | 0.0 | 0.0 | – | – | –
C[C@@H](c1ncncc1F)[C@](O)(Cn1cncn1)c1ccc(F)cc1F [Sample 41, Voriconazole] | 2.4 | 0.0 | 0.0 | – | – | –
C[C@@H](c1ncncc1F)[C@](O)(Cn1cncn1)c1ccc(F)cc1F [Sample 43, Voriconazole] | 0.4 | 0.0 | 0.1 | – | – | –
O=C[O-].[Na+] [Sample 27, Sodium formate] | 4.0 | 3.3 | 4.7 | – | – | –
CCC(=O)[O-].CCC(=O)[O-].[Ca+2] [Sample 19, Calcium propionate] | 3.3 | 2.0 | 0.9 | – | – | –
C/C=C/C=C/C(=O)[O-].[K+] [Sample 23, Potassium sorbate] | – | – | – | 1.0 | 0.0 | 0.0
C[C@@H](c1ncncc1F)[C@](O)(Cn1cncn1)c1ccc(F)cc1F [Sample 42, Voriconazole] | 1.3 | 0.0 | 0.0 | – | – | –
O=C([O-])c1ccccc1.[Na+] [Sample 16, Sodium benzoate] | 0.7 | 0.0 | 0.0 | – | – | –
CC(C)c1cccc(O)c(=O)c1 [Sample 30, Thujaplicin (isopropyltropolone)] | 0.0 | 0.0 | 0.0 | – | – | –
C/C=C/C=C/C(=O)[O-].[K+] [Sample 22, Potassium sorbate] | – | – | – | 0.7 | 0.0 | 0.0
O=C([O-])c1ccccc1.[Na+] [Sample 14, Sodium benzoate] | 1.0 | 0.0 | 1.7 | – | – | –
O=NO [Sample 28, Sodium nitrite] | 5.0 | 4.9 | 5.0 | – | – | –
Thujaplicin (isopropyltropolone) [Sample 29] | 1.0 | 0.0 | 5.0 | – | – | –
O=C([O-])c1ccccc1.[Na+] [Sample 13, Sodium benzoate] | 3.1 | 2.4 | 2.9 | – | – | –
CCC(=O)[O-].CCC(=O)[O-].[Ca+2] [Sample 17, Calcium propionate] | 4.6 | 4.9 | 5.0 | – | – | –
C/C=C/C=C/C(=O)[O-].[K+] [Sample 21, Potassium sorbate] | – | – | – | 2.9 | 2.6 | 2.6
C/C=C/C=C/C(=O)[O-].[K+] [Sample 20, Potassium sorbate] | – | – | – | 4.9 | 5.0 | 5.0
